Read-outs that look alike come from different tables or passages of the source.

By IC50 is commonly meant the concentration that gives 50% inhibition.

Test [1] has as its target T1, NAMPT (Homo sapiens, UniProt P43490).
T1 construct: His tag; host or cells: E. coli
Kind of test: Biochemical inhibition assay: NAMPT enzymatic reaction, NMN quantified by mass spectrometry. The conditions noted are these: read-out: Biochem IC50. The gist of the method:
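Inhibition of E. coli-expressed His-tagged human NAMPT, measured as NMN formation by mass spectrometry after a 30 min room-temperature reaction containing 1 μM NAM, 100 μM PRPP and 2.5 mM ATP.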

Test [2] has as its system A2780 cells. As to the kind of experiment: In-vitro cell proliferation assay (SRB), A2780 cells. It is filed as cell-based. The conditions noted are these: A2780 cells, 72 hours, read-out: A2780 IC50. The procedure, abridged: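 Read-out is SRB absorbance at 570 nm on TCA-fixed cells after 72 hours of compound treatment at 37° C. in 5% CO2. Background from a media-only plate is subtracted, and % inhibition is interpolated between two tested concentrations.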

T1 sequence (P43490 whole entry): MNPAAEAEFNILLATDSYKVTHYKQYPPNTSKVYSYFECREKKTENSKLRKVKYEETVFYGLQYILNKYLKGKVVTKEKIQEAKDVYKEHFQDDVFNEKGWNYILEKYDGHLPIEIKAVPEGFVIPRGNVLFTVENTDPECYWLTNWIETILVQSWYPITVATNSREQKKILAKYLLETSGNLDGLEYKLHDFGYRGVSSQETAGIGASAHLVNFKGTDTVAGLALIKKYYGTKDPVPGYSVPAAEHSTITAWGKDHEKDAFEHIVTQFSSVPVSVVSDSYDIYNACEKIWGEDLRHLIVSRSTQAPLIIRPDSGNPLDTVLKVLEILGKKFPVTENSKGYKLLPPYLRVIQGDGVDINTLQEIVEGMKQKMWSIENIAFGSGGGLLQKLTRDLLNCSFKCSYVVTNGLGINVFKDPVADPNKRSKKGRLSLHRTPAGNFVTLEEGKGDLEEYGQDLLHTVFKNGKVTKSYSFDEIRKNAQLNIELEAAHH

As to `Cc1ccc(S(=O)(=O)c2ccc(CNC(=O)c3cnc4nccn4c3)cc2)c(C)c1`, the concentration for half-maximal inhibition (IC50) in test [1] (NAMPT enzymatic reaction) came out at 2.1 nM; in test [2] (Homo sapiens, A2780, 72 h, SRB), 49.2 nM.

In the case of `O=C(NCc1ccc(S(=O)(=O)c2cc(F)ccc2F)cc1)c1cnc2[nH]ncc2c1`, the IC50 in test [1] (NAMPT enzymatic reaction) was 100 to 1000 nM; in test [2] (Homo sapiens, A2780, 72 h, SRB), 392 nM.

In the case of `O=C(NCc1ccc(S(=O)(=O)c2cc(Cl)cc(CO)c2)cc1)c1cc2ccncc2s1`, the IC50 in test [1] stood at 3.3 nM; in test [2] (SRB) it was 0.8 nM.

For the compound `CCOc1ccc(S(=O)(=O)c2ccc(CNC(=O)c3ccc4nccn4c3)cc2)c(C)c1`, the IC50 was determined as 6.6 nM in test [1] (NAMPT enzymatic reaction) and 11.1 nM in test [2] (Homo sapiens, A2780, 72 h, SRB).

For `CCOc1ccc(S(=O)(=O)c2ccc(CNC(=O)c3cc4cnccc4[nH]3)cc2)c(C)c1`, the IC50 in test [1] (NAMPT enzymatic reaction) worked out at 9.2 nM; in test [2] (Homo sapiens, A2780, 72 h, SRB) it was 12.6 nM.

Consider `CCOc1ccc(S(=O)(=O)c2ccc(CNC(=O)c3cnc4[nH]ncc4c3)cc2)c(C)c1`, for which the IC50 in test [1] (NAMPT enzymatic reaction) was 108 nM; in test [2] (Homo sapiens, A2780, 72 h, SRB) it was 66.7 nM.

Take `CCOc1ccc(S(=O)(=O)c2ccc(CNC(=O)c3cc4ccncc4s3)cc2)c(C)c1`: the IC50 came out at 1.2 nM in test [1] (NAMPT enzymatic reaction) and 13.2 nM in test [2] (Homo sapiens, A2780, 72 h, SRB).

For `CCOc1ccc(S(=O)(=O)c2ccc(CNC(=O)c3cc4ccncc4o3)cc2)c(C)c1`, the half-maximal inhibitory concentration (IC50) in test [1] (NAMPT enzymatic reaction) stood at 21.6 nM; in test [2] (Homo sapiens, A2780, 72 h, SRB) it was 27.4 nM.

With `CCOc1ccc(S(=O)(=O)c2ccc(CNC(=O)c3ccc4nccn4c3)cc2)cc1F`, the IC50 in test [1] (NAMPT enzymatic reaction) was 12.7 nM; in test [2] (Homo sapiens, A2780, 72 h, SRB), 1.8 nM.

`CCOc1ccc(S(=O)(=O)c2ccc(CNC(=O)c3cc4ccncc4s3)cc2)cc1F`: the IC50 in test [1] (NAMPT enzymatic reaction) came to 8.9 nM; in test [2] (Homo sapiens, A2780, 72 h, SRB), 3.6 nM.

Turning to `CCOc1ccc(S(=O)(=O)c2ccc(CNC(=O)c3cnc4nccn4c3)cc2)cc1F`, the IC50 turned out to be 0.9 nM in test [1] (NAMPT enzymatic reaction) and 3.1 nM in test [2] (Homo sapiens, A2780, 72 h, SRB).

On to `CCOc1ccc(S(=O)(=O)c2ccc(CNC(=O)c3cc4cnccc4[nH]3)cc2)cc1F`, for which the IC50 in test [1] (NAMPT enzymatic reaction) worked out at 20.5 nM; in test [2] (Homo sapiens, A2780, 72 h, SRB), 5.4 nM.

With `CCOc1ccc(S(=O)(=O)c2ccc(CNC(=O)c3cnc4[nH]ncc4c3)cc2)cc1F`, the IC50 in test [1] (NAMPT enzymatic reaction) was determined as 9.5 nM; in test [2] (Homo sapiens, A2780, 72 h, SRB), 5.2 nM.

Consider `CCOc1ccc(S(=O)(=O)c2ccc(CNC(=O)c3cnc4[nH]ncc4c3)cc2)cc1`, for which the IC50 in test [1] (NAMPT enzymatic reaction) amounted to 15.1 nM; in test [2] (Homo sapiens, A2780, 72 h, SRB), 8.4 nM.

With `CCOc1ccc(S(=O)(=O)c2ccc(CNC(=O)c3ccc4nccn4c3)cc2)cc1`, the IC50 in test [1] (NAMPT enzymatic reaction) amounted to 4.5 nM; in test [2] (Homo sapiens, A2780, 72 h, SRB) it was 2.9 nM.

In the case of `CCOc1ccc(S(=O)(=O)c2ccc(CNC(=O)c3cnc4nccn4c3)cc2)cc1`, the IC50 in test [1] (NAMPT enzymatic reaction) turned out to be 2 nM; in test [2] (Homo sapiens, A2780, 72 h, SRB), 6.1 nM.

`CCOc1ccc(S(=O)(=O)c2ccc(CNC(=O)c3cc4ccncc4s3)cc2)cc1`: the IC50 in test [1] (NAMPT enzymatic reaction) came out at 2.1 nM; in test [2] (Homo sapiens, A2780, 72 h, SRB), 4 nM.

For `CCc1ccc(S(=O)(=O)c2ccc(CNC(=O)c3cnc4nccn4c3)cc2)cc1`, the IC50 in test [1] (NAMPT enzymatic reaction) is 1.2 nM; in test [2] (Homo sapiens, A2780, 72 h, SRB) it was 6.2 nM.

`Cc1cc(S(=O)(=O)c2ccc(CNC(=O)c3cc4ccncc4o3)cc2)c(C)cc1F`: the IC50 in test [1] (NAMPT enzymatic reaction) amounted to 17.6 nM; in test [2] (Homo sapiens, A2780, 72 h, SRB) it was 24.2 nM.

Consider `Cc1cc(S(=O)(=O)c2ccc(CNC(=O)c3cc4cnccc4[nH]3)cc2)c(C)cc1F`, for which the IC50 was 51.4 nM in test [1] (NAMPT enzymatic reaction) and 12.8 nM in test [2] (Homo sapiens, A2780, 72 h, SRB).

As for `O=CNc1ccc(C(=O)NCc2ccc(S(=O)(=O)c3cc(F)cc(F)c3)cc2)cn1` [5-N-({4-[(3,5-difluorobenzene)sulfonyl]phenyl}methyl)pyridine-2,5-diamido], the IC50 in test [1] (NAMPT enzymatic reaction) was 1000 to 10000 nM; in test [2] (Homo sapiens, A2780, 72 h, SRB), 661 nM.

`Cn1ncc2c(S(=O)(=O)c3ccc(CNC(=O)c4cc5cc(O)ccc5[nH]4)cc3)cccc21` [5-hydroxy-N-{[4-(1-methyl-1H-indazole-4-sulfonyl)phenyl]methyl}-1H-indole-2-carboxamide]: the IC50 in test [1] (NAMPT enzymatic reaction) is 100 to 1000 nM; in test [2] (Homo sapiens, A2780, 72 h, SRB) it was above 1000 nM.

For the compound `Nc1ccc(C(=O)NCc2ccc(S(=O)(=O)c3cc(F)cc(F)c3)cc2)cn1` [6-amino-N-({4-[(3,5-difluorobenzene)sulfonyl]phenyl}methyl)pyridine-3-carboxamide], the IC50 in test [1] (NAMPT enzymatic reaction) was 14.2 nM; in test [2] (Homo sapiens, A2780, 72 h, SRB), 275 nM.

As to `COc1ccc(F)cc1NS(=O)(=O)c1ccc(CN/C(=N\C#N)Nc2ccncc2)cc1` [(E)-2-cyano-3-({4-[(5-fluoro-2-methoxyphenyl)sulfamoyl]phenyl}methyl)-1-(pyridin-4-yl)guanidine], the IC50 came out at 1.1 nM in test [1] (NAMPT enzymatic reaction) and 3 nM in test [2] (Homo sapiens, A2780, 72 h, SRB).

With `O=C(NCc1ccc2ncsc2c1)c1ccc(S(=O)(=O)c2cccc(Cl)c2)cc1` [N-(1,3-benzothiazol-6-ylmethyl)-4-[(3-chlorobenzene)sulfonyl]benzamide], the IC50 in test [1] (NAMPT enzymatic assay) is 10 nM; in test [2] (Homo sapiens, A2780, 72 h, SRB), above 10000 nM.

Take `O=C(NCc1ccc(S(=O)(=O)c2ccccc2)cc1)c1ccc2scnc2c1` [N-(4-(phenylsulfonyl)benzyl)benzo[d]thiazole-5-carboxamide]: the IC50 in test [1] (NAMPT enzymatic reaction) amounted to 47 nM; in test [2] (Homo sapiens, A2780, 72 h, SRB assay), 3870 nM.

For `O=C(NCc1ccc(S(=O)(=O)c2cnn(-c3cccc(Cl)c3)c2)cc1)c1cnc2[nH]ncc2c1` [N-({4-[1-(3-chlorophenyl)-1H-pyrazole-4-sulfonyl]phenyl}methyl)-1H-pyrazolo[3,4-b]pyridine-5-carboxamide], the IC50 in test [1] (NAMPT enzymatic assay) amounted to 28.2 nM; in test [2] (Homo sapiens, A2780, 72 h, SRB), 55.6 nM.

Take `O=C(NCc1ccc(S(=O)(=O)c2cnn(-c3cccc(Cl)c3)c2)cc1)c1cc2cnccc2[nH]1` [N-({4-[1-(3-chlorophenyl)-1H-pyrazole-4-sulfonyl]phenyl}methyl)-1H-pyrrolo[3,2-c]pyridine-2-carboxamide]: the IC50 came to 16.9 nM in test [1] (NAMPT enzymatic assay) and 13.1 nM in test [2] (Homo sapiens, A2780, 72 h, SRB).

Take `O=C(NCc1ccc(S(=O)(=O)c2cnn(-c3cccc(Cl)c3)c2)cc1)c1cc2ccncc2o1` [N-({4-[1-(3-chlorophenyl)-1H-pyrazole-4-sulfonyl]phenyl}methyl)furo[2,3-c]pyridine-2-carboxamide]: the IC50 in test [1] (NAMPT enzymatic assay) was 11.6 nM; in test [2] (Homo sapiens, A2780, 72 h, SRB), 14 nM.

For the compound `O=C(NCc1ccc(S(=O)(=O)c2cnn(-c3cccc(Cl)c3)c2)cc1)c1ccc2nccn2c1` [N-({4-[1-(3-chlorophenyl)-1H-pyrazole-4-sulfonyl]phenyl}methyl)imidazo[1,2-a]pyridine-6-carboxamide], the IC50 worked out at 14 nM in test [1] (NAMPT enzymatic assay) and 6.4 nM in test [2] (Homo sapiens, A2780, 72 h, SRB).

For the compound `O=C(NCc1ccc(S(=O)(=O)c2cnn(-c3cccc(Cl)c3)c2)cc1)c1cnc2nccn2c1` [N-({4-[1-(3-chlorophenyl)-1H-pyrazole-4-sulfonyl]phenyl}methyl)imidazo[1,2-a]pyrimidine-6-carboxamide], the IC50 in test [1] (NAMPT enzymatic assay) amounted to 2.2 nM; in test [2] (Homo sapiens, A2780, 72 h, SRB) it was 11.5 nM.

`O=C(NCc1ccc(S(=O)(=O)c2cnn(-c3cccc(Cl)c3)c2)cc1)c1cc2ccncc2s1` [N-({4-[1-(3-chlorophenyl)-1H-pyrazole-4-sulfonyl]phenyl}methyl)thieno[2,3-c]pyridine-2-carboxamide]: the IC50 in test [1] (NAMPT enzymatic assay) is 4.1 nM; in test [2] (Homo sapiens, A2780, 72 h, SRB), 13.9 nM.

For the compound `O=C(NCc1ccc(S(=O)(=O)c2cnn(-c3ccc(F)cc3)c2)cc1)c1cc2cnccc2[nH]1` [N-({4-[1-(4-fluorophenyl)-1H-pyrazole-4-sulfonyl]phenyl}methyl)-1H-pyrrolo[3,2-c]pyridine-2-carboxamide], the IC50 in test [1] (NAMPT enzymatic assay) was determined as 18.4 nM; in test [2] (Homo sapiens, A2780, 72 h, SRB) it was 6.6 nM.

`O=C(NCc1ccc(S(=O)(=O)c2cnn(-c3ccc(F)cc3)c2)cc1)c1cc2ccncc2o1` [N-({4-[1-(4-fluorophenyl)-1H-pyrazole-4-sulfonyl]phenyl}methyl)furo[2,3-c]pyridine-2-carboxamide]: the IC50 stood at 6.9 nM in test [1] (NAMPT enzymatic assay) and 7.4 nM in test [2] (Homo sapiens, A2780, 72 h, SRB).

With `O=C(NCc1ccc(S(=O)(=O)c2cnn(-c3ccc(F)cc3)c2)cc1)c1cc2ccncc2s1` [N-({4-[1-(4-fluorophenyl)-1H-pyrazole-4-sulfonyl]phenyl}methyl)thieno[2,3-c]pyridine-2-carboxamide], the half-inhibitory concentration (IC50) in test [1] (NAMPT enzymatic assay) came to 4.5 nM; in test [2] (Homo sapiens, A2780, 72 h, SRB) it was 6.2 nM.

In the case of `CC(C)n1cc(S(=O)(=O)c2ccc(CNC(=O)c3ccc4nccn4c3)cc2)cn1` [N-({4-[1-(propan-2-yl)-1H-pyrazole-4-sulfonyl]phenyl}methyl)imidazo[1,2-a]pyridine-6-carboxamide], the IC50 stood at 8 nM in test [1] (NAMPT enzymatic assay) and 2.7 nM in test [2] (Homo sapiens, A2780, 72 h, SRB).

In the case of `Cn1cc(S(=O)(=O)c2ccc(CNC(=O)c3ccc4nccn4c3)cc2)c(C(F)(F)F)n1` [N-({4-[1-methyl-3-(trifluoromethyl)-1H-pyrazole-4-sulfonyl]phenyl}methyl)imidazo[1,2-a]pyridine-6-carboxamide], the IC50 in test [1] (NAMPT enzymatic assay) is 29.9 nM; in test [2] (Homo sapiens, A2780, 72 h, SRB), 27.8 nM.

As for `Cn1ncc(S(=O)(=O)c2ccc(CNC(=O)c3cnc4[nH]ncc4c3)cc2)c1C(F)(F)F` [N-({4-[1-methyl-5-(trifluoromethyl)-1H-pyrazole-4-sulfonyl]phenyl}methyl)-1H-pyrazolo[3,4-b]pyridine-5-carboxamide], the concentration for half-maximal inhibition (IC50) was 53.4 nM in test [1] (NAMPT enzymatic assay) and 43.4 nM in test [2] (Homo sapiens, A2780, 72 h, SRB).

Consider `Cn1ncc(S(=O)(=O)c2ccc(CNC(=O)c3cnc4nccn4c3)cc2)c1C(F)(F)F` [N-({4-[1-methyl-5-(trifluoromethyl)-1H-pyrazole-4-sulfonyl]phenyl}methyl)imidazo[1,2-a]pyrimidine-6-carboxamide], for which the IC50 came to 4 nM in test [1] (NAMPT enzymatic assay) and 67.9 nM in test [2] (Homo sapiens, A2780, 72 h, SRB).

In the case of `O=C(NCc1ccc(S(=O)(=O)c2csc(-c3cccc(F)c3)n2)cc1)c1cnc2[nH]ncc2c1` [N-({4-[2-(3-fluorophenyl)-1,3-thiazole-4-sulfonyl]phenyl}methyl)-1H-pyrazolo[3,4-b]pyridine-5-carboxamide], the IC50 in test [1] (NAMPT enzymatic assay) stood at 27.1 nM; in test [2] (Homo sapiens, A2780, 72 h, SRB), 60.9 nM.

Source of the values: patent US12336981B2, “Compounds and compositions for the inhibition of NAMPT” (Valo Health, Inc., priority 2010, dated 2025).
